For nine compounds, IC50 results are on record in patent publication US11066445B2, “Immunomodulators acting as antagonists of PD-1” (Bristol-Myers Squibb Company, priority 2017, dated 2021).

pIC50: −log10 of the molar value. Starred links: 1 amine or outer side, 2 acyl side, 3 side chain; linkers in the order of their positions; H or OH if unused. Positions of bridges follow the written chain, without caps; N, C: chain ends. Non-standard residues stand in square brackets, D forms with d. Residues, ends and D or L forms follow the SMILES beside them. *: point of attachment. X3 = O=C(O)CCCCCCCCCCCCCCCCC(=O)N[C@@H](CCC(=O)NCCCOCCOCCOCCCN*)C(=O)O; Trp(1-CH2CONHSO2Me) = CS(=O)(=O)NC(=O)Cn1cc(C[C@H](N)C(=O)O)c2ccccc21; X1 = O=C(O)CCCCCCCCCCCCCCC(=O)N[C@@H](CCC(=O)NCCCOCCOCCOCCCN*)C(=O)O; Trp(4-aza,1-CH2COOH) = N[C@@H](Cc1cn(CC(=O)O)c2cccnc12)C(=O)O; Trp(7-aza,1-CH2COOH) = N[C@@H](Cc1cn(CC(=O)O)c2ncccc12)C(=O)O; Trp(1-CH2CO2Me) = COC(=O)Cn1cc(C[C@H](N)C(=O)O)c2ccccc21; X6 = COc1ccc2c(c1)c(C[C@H](N[*:1])C(=O)[*:2])cn2CC(=O)O; X2 = O=C(O)Cn1cc(C[C@@H](N[*:1])C(=O)[*:2])c2cccnc21; X4 = O=C(O)Cn1nc(C[C@H](N[*:1])C(=O)[*:2])c2ccccc21; d(cisHyp) = O=C(O)[C@H]1C[C@@H](O)CN1; Hyp = O=C(O)[C@@H]1C[C@@H](O)CN1; NMeNle = CCCC[C@H](NC)C(=O)O; NMeA = CN[C@@H](C)C(=O)O; Dab = NCC[C@H](N)C(=O)O; Dap = NC[C@H](N)C(=O)O; Sar = CNCC(=O)O

The experiment concerns the target T1, PD-1-Ig binding to PD-L1-TVMV-His (PD-L1-His) (Homo sapiens, UniProt Q9NZQ7).
T1 construct: hPDL1(19-239)-TVMV-His; TVMV protease cleavage site (C); made in house; host or cells: HEK293T cells
As to the kind of experiment: PD-1/PD-L1 Homogenous Time-Resolved Fluorescence (HTRF) binding assay. The settings on record: PD-1-Ig (20 nM) / PD-L1-His (10 nM); range classes; read-out: LE HTRF hPD1 hPDL1 IC50. The source says: Methods for Testing the Ability of Macrocyclic Peptides to Compete for the Binding of Pd-1 to Pd-L1 Using Homogenous Time-Resolved Fluorescence (HTRF) Binding Assays
The ability of the macrocyclic peptides of the present disclosure to bind to PD-L1 was investigated using a PD-1/PD-L1 Homogenous Time-Resolved Fluorescence (HTRF) binding assay.
Homogenous Time-Resolved Fluorescence (HTRF) Assays of Binding of Soluble PD-1 to Soluble PD-L1. Soluble PD-1 and soluble PD-L1 refers to proteins with carboxyl-end truncations that remove the transmembrane-spanning regions and are fused to heterologous sequences, specifically the Fc portion of the human immunoglobuling G sequence (Ig) or the hexahistidine epitope tag (His). All binding studies were performed in an HTRF assay buffer consisting of dPBS supplemented with 0.1% (w/v) bovine serum albumin and 0.05% (v/v) Tween-20. For the PD-1-Ig/PD-L1-His binding assay, inhibitors were pre-incubated with PD-L1-His (10 nM final) for 15 m in 4 μl of assay buffer, followed by addition of PD-1-Ig (20 nM final) in 1 μl of assay buffer and further incubation for 15 m. PD-L1 fusion proteins from either human, cynomologous macaques, mouse, or other species were used. HTRF detection was achieved using europium crypate-labeled anti-Ig monoclonal antibody (1 nM final) and allophycocyanin (APC) labeled anti-His monoclonal antibody (20 nM final). Antibodies were diluted in HTRF detection buffer and 5 μl was dispensed on top of binding reaction. The reaction was allowed to equilibrate for 30 minutes and signal (665 nm/620 nm ratio) was obtained using an EnVision fluorometer. Additional binding assays were established between PD-1-Ig/PD-L2-His (20 and 5 nM, respectively), CD80-His/PD-L1-Ig (100 and 10 nM, respectively) and CD80-His/CTLA4-Ig (10 and 5 nM, respectively). Binding/competition studies between biotinylated Compound No. 71 and human PD-L1-His were performed as follows. Macrocyclic peptide inhibitors were pre-incubated with PD-L1-His (10 nM final) for 60 minutes in 4 μl of assay buffer followed by addition of biotinylated Compound No. 71 (0.5 nM final) in 1 μl of assay buffer. Binding was allowed to equilibrate for 30 minutes followed by addition of europium crypated labeled Streptavidin (2.5 pM final) and APC-labeled anti-His (20 nM final) in 5 μl of HTRF buffer. The reaction was allowed to equilibrate for 30 m and signal (665 nm/620 nm ratio) was obtained using an EnVision fluorometer.
Recombinant Proteins. Carboxyl-truncated human PD-1 (amino acids 25-167) with a C-terminal human Ig epitope tag [hPD-1 (25-167)-3S-IG] and human PD-L1 (amino acids 18-239) with a C-terminal His epitope tag [hPD-L1(19-239)-tobacco vein mottling virus protease cleavage site (TVMV)-His] were expressed in HEK293T cells and purified sequentially by recombinant Protein A affinity chromatography and size exclusion chromatography. Human PD-L2-His (Sino Biologicals), CD80-His (Sino Biologicals), CTLA4-Ig (RnD Systems) were all obtained through commercial sources.
Ranges are as follows: A=0.010-0.060 μM; B=0.0011-0.009 μM; C=0.0003-0.0010 μM.

T1 sequence (Q9NZQ7 with tags, fused parts or gaps): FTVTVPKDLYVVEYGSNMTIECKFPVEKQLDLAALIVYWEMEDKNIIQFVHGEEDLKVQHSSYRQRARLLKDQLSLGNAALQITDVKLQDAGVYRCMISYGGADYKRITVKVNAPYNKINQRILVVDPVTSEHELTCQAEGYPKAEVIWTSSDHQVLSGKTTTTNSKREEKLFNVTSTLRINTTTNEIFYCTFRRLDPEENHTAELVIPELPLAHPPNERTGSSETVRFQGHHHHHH

As for `CCCC[C@H]1C(=O)N(C)[C@@H](CCCC)C(=O)N[C@@H](CC(C)C)C(=O)N[C@H](C(=O)NCC(=O)N[C@@H](CC(=O)NCCCOCCOCCOCCCNC(=O)CC[C@H](NC(=O)CCCCCCCCCCCCCCCCC(=O)O)C(=O)O)C(=O)O)CSCC(=O)N[C@@H](Cc2ccc(O)cc2)C(=O)N(C)[C@@H](C)C(=O)N[C@@H](CC(N)=O)C(=O)N(C)CC(=O)N[C@@H](CN)C(=O)N[C@@H](CC(C)C)C(=O)N2C[C@H](O)C[C@@H]2C(=O)N[C@@H](Cc2c[nH]c3ccccc23)C(=O)N[C@@H](CCN)C(=O)N[C@@H](Cc2cn(CC(=O)OC)c3ccccc23)C(=O)N1C` [Example 10] ({CH2CO}-Y[NMeA]N[Sar][Dap]L[d(cisHyp)]W[Dab][Trp(1-CH2CO2Me)][NMeNle][NMeNle]LCGD(X3)-OH; thioether N-14), the pIC50 (as a rule, −log10 of the IC50, conventionally taken in molar units) is 8.05 to 8.96. As to `CCCC[C@H]1C(=O)N(C)[C@@H](CCCC)C(=O)N[C@@H](CC(C)C)C(=O)N[C@H](C(=O)NCC(=O)N[C@@H](CC(=O)NCCCOCCOCCOCCCNC(=O)CC[C@H](NC(=O)CCCCCCCCCCCCCCCCC(=O)O)C(=O)O)C(=O)O)CSCC(=O)N[C@@H](Cc2ccc(O)cc2)C(=O)N(C)[C@@H](C)C(=O)N[C@@H](CC(N)=O)C(=O)N2CCC[C@H]2C(=O)N[C@@H](CN)C(=O)N[C@@H](CC(C)C)C(=O)N2C[C@H](O)C[C@H]2C(=O)N[C@@H](Cc2c[nH]c3ccccc23)C(=O)N[C@@H](CCN)C(=O)N[C@@H](Cc2cn(CC(=O)O)c3ccc(OC)cc23)C(=O)N1C` [Example 12] ({CH2CO}-Y[NMeA]NP[Dap]L[Hyp]W[Dab][X6][NMeNle][NMeNle]LCGD(X3)-OH; thioether N-14), the pIC50 was 9.00 to 9.52.

For the compound `CCCC[C@H]1C(=O)N(C)[C@@H](CCCC)C(=O)N[C@@H](CC(C)C)C(=O)N[C@H](C(=O)NCC(=O)N[C@@H](CC(=O)NCCCOCCOCCOCCCNC(=O)CC[C@H](NC(=O)CCCCCCCCCCCCCCCCC(=O)O)C(=O)O)C(=O)O)CSCC(=O)N[C@@H](Cc2ccc(O)cc2)C(=O)N(C)[C@@H](C)C(=O)N[C@@H](CC(N)=O)C(=O)N2CCC[C@H]2C(=O)N[C@@H](CN)C(=O)N[C@@H](CC(C)C)C(=O)N2C[C@H](O)C[C@H]2C(=O)N[C@@H](Cc2c[nH]c3ccccc23)C(=O)N[C@@H](CCN)C(=O)N[C@H](Cc2cn(CC(=O)O)c3ncccc23)C(=O)N1C` [Example 14] ({CH2CO}-Y[NMeA]NP[Dap]L[Hyp]W[Dab][X2][NMeNle][NMeNle]LCGD(X3)-OH; thioether N-14), the pIC50 was 7.22 to 8.00. Regarding `CCCC[C@H]1C(=O)N(C)[C@@H](CCCC)C(=O)N[C@@H](CC(C)C)C(=O)N[C@H](C(=O)NCC(=O)N[C@@H](CC(=O)NCCCOCCOCCOCCCNC(=O)CC[C@H](NC(=O)CCCCCCCCCCCCCCC(=O)O)C(=O)O)C(=O)O)CSCC(=O)N[C@@H](Cc2ccc(O)cc2)C(=O)N(C)[C@@H](C)C(=O)N[C@@H](CC(N)=O)C(=O)N2CCC[C@H]2C(=O)N[C@@H](CN)C(=O)N[C@@H](CC(C)C)C(=O)N2C[C@H](O)C[C@H]2C(=O)N[C@@H](Cc2c[nH]c3ccccc23)C(=O)N[C@@H](CCN)C(=O)N[C@@H](Cc2cn(CC(=O)NS(C)(=O)=O)c3ccccc23)C(=O)N1C` [Example 15] ({CH2CO}-Y[NMeA]NP[Dap]L[Hyp]W[Dab][Trp(1-CH2CONHSO2Me)][NMeNle][NMeNle]LCGD(X1)-OH; thioether N-14), the pIC50 was 8.05 to 8.96. Turning to `CCCC[C@H]1C(=O)N(C)[C@@H](CCCC)C(=O)N[C@@H](CC(C)C)C(=O)N[C@H](C(=O)NCC(=O)N[C@@H](CC(=O)NCCCOCCOCCOCCCNC(=O)CC[C@H](NC(=O)CCCCCCCCCCCCCCC(=O)O)C(=O)O)C(=O)O)CSCC(=O)N[C@@H](Cc2ccc(O)cc2)C(=O)N(C)[C@@H](C)C(=O)N[C@@H](CC(N)=O)C(=O)N2CCC[C@H]2C(=O)N[C@@H](CN)C(=O)N[C@@H](CC(C)C)C(=O)N2C[C@H](O)C[C@H]2C(=O)N[C@@H](Cc2c[nH]c3ccccc23)C(=O)N[C@@H](CCN)C(=O)N[C@@H](Cc2cn(CC(=O)OC)c3ccccc23)C(=O)N1C` [Example 16] ({CH2CO}-Y[NMeA]NP[Dap]L[Hyp]W[Dab][Trp(1-CH2CO2Me)][NMeNle][NMeNle]LCGD(X1)-OH; thioether N-14), the negative-log IC50 (pIC50) is 8.05 to 8.96. As to `CCCC[C@H]1C(=O)N(C)[C@@H](CCCC)C(=O)N[C@@H](CC(C)C)C(=O)N[C@H](C(=O)NCC(=O)N[C@@H](CC(=O)NCCCOCCOCCOCCCNC(=O)CC[C@H](NC(=O)CCCCCCCCCCCCCCC(=O)O)C(=O)O)C(=O)O)CSCC(=O)N[C@@H](Cc2ccc(O)cc2)C(=O)N(C)[C@@H](C)C(=O)N[C@@H](CC(N)=O)C(=O)N2CCC[C@H]2C(=O)N[C@@H](CN)C(=O)N[C@@H](CC(C)C)C(=O)N2C[C@H](O)C[C@H]2C(=O)N[C@@H](Cc2c[nH]c3ccccc23)C(=O)N[C@@H](CCN)C(=O)N[C@@H](Cc2nn(CC(=O)O)c3ccccc23)C(=O)N1C` [Example 17] ({CH2CO}-Y[NMeA]NP[Dap]L[Hyp]W[Dab][X4][NMeNle][NMeNle]LCGD(X1)-OH; thioether N-14), the pIC50 is 8.05 to 8.96.

Take `CCCC[C@H]1C(=O)N(C)[C@@H](CCCC)C(=O)N[C@@H](CC(C)C)C(=O)N[C@H](C(=O)NCC(=O)N[C@@H](CC(=O)NCCCOCCOCCOCCCNC(=O)CC[C@H](NC(=O)CCCCCCCCCCCCCCC(=O)O)C(=O)O)C(=O)O)CSCC(=O)N[C@@H](Cc2ccc(O)cc2)C(=O)N(C)[C@@H](C)C(=O)N[C@@H](CC(N)=O)C(=O)N2CCC[C@H]2C(=O)N[C@@H](CN)C(=O)N[C@@H](CC(C)C)C(=O)N2C[C@H](O)C[C@H]2C(=O)N[C@@H](Cc2c[nH]c3ccccc23)C(=O)N[C@@H](CCN)C(=O)N[C@@H](Cc2cn(CC(=O)O)c3cccnc23)C(=O)N1C` [Example 18] ({CH2CO}-Y[NMeA]NP[Dap]L[Hyp]W[Dab][Trp(4-aza,1-CH2COOH)][NMeNle][NMeNle]LCGD(X1)-OH; thioether N-14): the negative logarithm of the IC50 (pIC50) was 7.22 to 8.00. Take `CCCC[C@H]1C(=O)N(C)[C@@H](CCCC)C(=O)N[C@@H](CC(C)C)C(=O)N[C@H](C(=O)NCC(=O)N[C@@H](CC(=O)NCCCOCCOCCOCCCNC(=O)CC[C@H](NC(=O)CCCCCCCCCCCCCCC(=O)O)C(=O)O)C(=O)O)CSCC(=O)N[C@@H](Cc2ccc(O)cc2)C(=O)N(C)[C@@H](C)C(=O)N[C@@H](CC(N)=O)C(=O)N2CCC[C@H]2C(=O)N[C@@H](CN)C(=O)N[C@@H](CC(C)C)C(=O)N2C[C@H](O)C[C@H]2C(=O)N[C@@H](Cc2c[nH]c3ccccc23)C(=O)N[C@@H](CCN)C(=O)N[C@@H](Cc2cn(CC(=O)O)c3ncccc23)C(=O)N1C` [Example 19] ({CH2CO}-Y[NMeA]NP[Dap]L[Hyp]W[Dab][Trp(7-aza,1-CH2COOH)][NMeNle][NMeNle]LCGD(X1)-OH; thioether N-14): the pIC50 was 8.05 to 8.96.

As to `CCCC[C@H]1C(=O)N(C)[C@@H](CCCC)C(=O)N[C@@H](CC(C)C)C(=O)N[C@H](C(=O)NCC(=O)N[C@@H](CC(=O)NCCCOCCOCCOCCCNC(=O)CC[C@H](NC(=O)CCCCCCCCCCCCCCC(=O)O)C(=O)O)C(=O)O)CSCC(=O)N[C@@H](Cc2ccc(O)cc2)C(=O)N(C)[C@@H](C)C(=O)N[C@@H](CC(N)=O)C(=O)N2CCC[C@H]2C(=O)N[C@@H](CN)C(=O)N[C@@H](CC(C)C)C(=O)N2C[C@H](O)C[C@H]2C(=O)N[C@@H](Cc2c[nH]c3ccccc23)C(=O)N[C@@H](CCN)C(=O)N[C@H](Cc2cn(CC(=O)O)c3ncccc23)C(=O)N1C` [Example 20] ({CH2CO}-Y[NMeA]NP[Dap]L[Hyp]W[Dab][X2][NMeNle][NMeNle]LCGD(X1)-OH; thioether N-14), the negative logarithm of the IC50 (pIC50) is 7.22 to 8.00.
